Data published in PMC4979471 (Cell Death Discovery, 2015).
Entries after “also recorded” stand apart in the source; their conditions may differ. Where two headings read alike, the source gives them in different places.

Experiments:
[1] = tested on: BMDM; assay: TNF+cycloheximide-stimulated apoptosis (cell viability, Caspase 3/7); type: cell-based, mouse; conditions: 100 nM
Protocol: Caspase 3/7 activity was measured at 6 h using the Caspase-Glo 3/7 assay (Promega).

[2] = tested on: primary mouse bone marrow-derived macrophages (BMDMs); assay: TNF+zVAD-induced necroptosis, CellTiter-Glo; type: cell-based; conditions: BMDM, read-out: IC50 blocking necroptosis
Protocol: Mouse fibrosarcoma L929 cells (ATCC# CCL-1) and human monocytic U937 cells (ATCC# CRL-1593.2) were cultured in RPMI media supplemented with 10% heat-inactivated FBS, 100 U/ml penicillin and […] streptomycin. BMDM were prepared from C57BL/6 mice by differentiation with 10 ng/ml M-CSF (R&D Systems) for 7 days and cultured in DMEM medium supplemented with 10% heat-inactivated FBS, 100 U/ml penicillin, 100 μg/ml streptomycin and 0.25 μg/ml amphotericin. Primary human neutrophils were isolated from human blood following the standard method comprised of sequential sedimentation in dextran, density centrifugation in Ficoll–Hypaque and lysis of contaminating red blood cells.
Necroptotic cell death was induced in BMDM, L929 and U937 cells with TNF in the presence of caspase inhibitor zVAD-FMK or QVD-Oph (BMDM: 50 ng/ml TNF+50 μM zVAD; L929: 100 ng/ml TNF+50 μM QVD; U937: 100 ng/ml TNF+25 μM QVD). To evaluate the effect of RIP1 inhibitors, cells were pretreated with compound (dose–response) for 30 min. Induced cell death was evaluated 19–21 h later by measuring cellular ATP levels using CellTiter-Glo Luminescent Cell Viability assay (Promega, Fitchburg, WI, USA). To induce necroptosis in neutrophils, freshly isolated human neutrophils were stimulated with TNF (10 ng/ml), QVD-Oph (50 μM) and SMAC mimetic (100 nM). Induced cell death was evaluated as above.

[3] = biological target: T1, MNK2 (Homo sapiens, UniProt Q9HBH9); assay: Kinase selectivity, P33-radiolabeled assay; type: biochemical; conditions: 10 μM ATP
T1 construct: purchased Reaction Biology Corp
Procedure, shortened: (§1)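 ATP at 10 μM; test article at 10 μM, single point, two replicates. Output is activity as % of DMSO.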

[4] = biological target: T2, MKK4 (Homo sapiens, UniProt P45985); assay: Kinase selectivity, P33-radiolabeled assay; type: biochemical; conditions: 10 μM ATP
T2 construct: purchased Reaction Biology Corp
T2 sequence (P45985 1-399): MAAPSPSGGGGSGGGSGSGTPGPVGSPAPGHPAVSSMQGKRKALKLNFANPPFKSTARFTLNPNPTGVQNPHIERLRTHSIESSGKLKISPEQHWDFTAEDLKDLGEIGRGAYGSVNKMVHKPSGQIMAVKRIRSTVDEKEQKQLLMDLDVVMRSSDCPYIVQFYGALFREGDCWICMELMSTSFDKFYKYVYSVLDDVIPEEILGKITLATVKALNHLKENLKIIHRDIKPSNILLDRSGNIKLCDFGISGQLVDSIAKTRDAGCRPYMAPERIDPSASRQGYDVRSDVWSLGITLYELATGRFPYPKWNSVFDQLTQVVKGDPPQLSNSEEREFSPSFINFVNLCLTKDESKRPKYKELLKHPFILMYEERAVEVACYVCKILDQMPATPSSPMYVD
Procedure, shortened: as §1

[5] = biological target: T3, recombinant human IDO (Homo sapiens, UniProt P14902); assay: IDO enzymatic assay; type: biochemical; conditions: in vitro enzymatic assay
T3 construct: purchased R&D Systems (Minneapolis, MN, USA)
Protocol: IDO activity was determined as described by Takahashi et al.[25] using recombinant human IDO purchased from R&D Systems (Minneapolis, MN, USA). The yellow pigment derived from kynurenine was measured at 490 nm using the Spectramax microplate reader (Molecular Devices).

[6] = tested on: BMDM; assay: TNF-induced NFκB activation (IκB phosphorylation and degradation, Western blot); type: cell-based, mouse; conditions: 100 nM
Excerpt: Lysates prepared in 1× Cell Lysis Buffer (Cell Signaling, Danvers, MA, USA) containing protease and phosphatase inhibitors were separated on 4–12% SDS-PAGE and blotted onto nitrocellulose membrane (Invitrogen, Waltham, MA, USA). Blots were probed for IκB (9242, Cell Signaling), phospho-IκB (2859, Cell Signaling), and tubulin as a loading control.

[7] = tested on: 339 kinases
Protocol: The compound was tested at a single dose in duplicate at 10 μM. Reactions were carried out at 10 μM ATP. Data are reported as % enzyme activity (relative to DMSO controls). The full data set is shown in the Supplementary Table I.

[8] = tested on: C57BL/6 mice; assay: TNF+zVAD-induced shock model (temperature loss); type: in vivo, mouse; conditions: 15 min before TNF+zVAD
Protocol: Temperature was monitored over the course of 3 h by rectal probe.

[9] = read-out: % Enzyme Activity (relative to DMSO controls) AVG
[10] = read-out: % Enzyme Activity (relative to DMSO controls) Data 1
[11] = read-out: % Enzyme Activity (relative to DMSO controls) Data 2

T1 sequence (Q9HBH9 whole entry): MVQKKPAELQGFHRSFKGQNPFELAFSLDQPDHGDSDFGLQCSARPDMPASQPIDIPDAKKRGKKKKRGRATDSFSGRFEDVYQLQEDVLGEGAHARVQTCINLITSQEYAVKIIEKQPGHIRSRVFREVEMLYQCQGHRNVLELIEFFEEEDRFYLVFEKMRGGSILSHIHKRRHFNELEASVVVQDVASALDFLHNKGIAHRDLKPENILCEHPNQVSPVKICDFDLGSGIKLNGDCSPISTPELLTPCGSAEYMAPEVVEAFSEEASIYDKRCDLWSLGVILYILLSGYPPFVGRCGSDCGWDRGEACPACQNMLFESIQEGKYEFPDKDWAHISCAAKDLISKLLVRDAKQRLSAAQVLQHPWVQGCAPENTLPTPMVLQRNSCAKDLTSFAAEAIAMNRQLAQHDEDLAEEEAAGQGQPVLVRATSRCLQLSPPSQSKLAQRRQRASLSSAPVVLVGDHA
T3 sequence (P14902 whole entry): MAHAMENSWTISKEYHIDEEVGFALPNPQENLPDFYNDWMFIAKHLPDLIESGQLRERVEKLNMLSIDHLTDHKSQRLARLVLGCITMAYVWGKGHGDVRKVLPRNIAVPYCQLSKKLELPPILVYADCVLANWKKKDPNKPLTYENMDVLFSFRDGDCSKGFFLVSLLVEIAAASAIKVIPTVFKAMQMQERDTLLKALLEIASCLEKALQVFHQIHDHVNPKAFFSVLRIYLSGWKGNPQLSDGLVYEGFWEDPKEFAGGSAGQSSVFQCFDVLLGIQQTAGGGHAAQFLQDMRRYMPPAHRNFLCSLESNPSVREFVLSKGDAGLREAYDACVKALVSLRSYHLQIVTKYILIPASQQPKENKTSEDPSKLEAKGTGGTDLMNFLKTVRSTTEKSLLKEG

**Q.** How did the “effect on TNF+CHX-stimulated apoptosis” value [1] turn out when `CC(C)(C)C(=O)N1N=CC[C@H]1c1ccccc1` [GSK′963] was run?
**A.** no measurable effects; also recorded: no effect

**Q.** And the IC50 [2]?
**A.** 3 nM

**Q.** And the remaining activity at 10 µM [3, 9]?
**A.** 109%

**Q.** And the remaining activity at 10 µM [3, 10]?
**A.** 107%

**Q.** What about the remaining activity at 10 µM [3, 11] of the same compound?
**A.** 111%

**Q.** And the remaining activity at 10 µM [4, 9]?
**A.** 105%

**Q.** And the remaining activity at 10 µM [4, 10]?
**A.** 105%

**Q.** And the remaining activity at 10 µM [4, 11]?
**A.** 105%

**Q.** And the “effect on IDO activity” value [5]?
**A.** lacks measurable activity; also recorded: no effect; also recorded: inactive

**Q.** What about the “effect on TNF-induced NFκB activation” value [6] of the same compound?
**A.** no measurable effects; also recorded: no effect

**Q.** What about the “activity against 339 human kinases” value ([7]; 10μM, Reaction Biology Corporation) of the same compound?
**A.** does not block the activity of any

**Q.** What about the “inhibition against all other kinases tested” value ([7]; 10 μM, panel of 339 kinases) of the same compound?
**A.** < 50%

**Q.** And the “protection from TNF+zVAD-induced temperature loss” value ([8]; 0.2 mg/kg i.p.)?
**A.** significant response

**Q.** And the “protection from TNF+zVAD-induced temperature loss” value ([8]; 2 mg/kg i.p.)?
**A.** completely inhibit temperature loss; also recorded: complete protection
